According to patent publication US20170045513A1, “METHODS OF DIAGNOSING CELIAC DISEASE USING IP-10” (ImmusanT, Inc., priority 2014, published 2017):
Non-standard residues stand in square brackets, D forms with d. pGlu = O=C1CC[C@@H](C(=O)O)N1

System: gluten-reactive T cells
Assay: 96-well plate whole blood cytokine release, IP-10 by MAGPIX multiplex bead assay
Format: cell-based, human
Settings: for Percent of maximal response to individual gluten peptides, IP-10: after oral gluten challenge; for IP-10 WB MAGPIX % max Mean: n = 10, blood after oral gluten challenge, individual peptides 5 μM (Peptide 2* of P14, Pepscan: 10 μg/mL (5.45 μM))

Substance | Percent of maximal response to individual gluten peptides, IP-10 (Subject 1, Max. 2331 pg/mL) | Percent of maximal response to individual gluten peptides, IP-10 (Subject 2, Max. 3646 pg/mL) | Percent of maximal response to individual gluten peptides, IP-10 (Subject 3, Max. 9492 pg/mL) | Percent of maximal response to individual gluten peptides, IP-10 (Subject 4, Max. 9463 pg/mL) | Percent of maximal response to individual gluten peptides, IP-10 (Subject 5, Max. 9336 pg/mL) | Percent of maximal response to individual gluten peptides, IP-10 (Subject 6, Max. 5863 pg/mL) | Percent of maximal response to individual gluten peptides, IP-10 (Subject 7, Max. 2330 pg/mL) | Percent of maximal response to individual gluten peptides, IP-10 (Subject 8, Max. 4019 pg/mL) | Percent of maximal response to individual gluten peptides, IP-10 (Subject 9, Max. 8349 pg/mL) | Percent of maximal response to individual gluten peptides, IP-10 (Subject 10, Max. 8922 pg/mL) | IP-10 WB MAGPIX % max Mean
(pE)PEQPEQPFPEQPQQ-amide ([pGlu]PEQPEQPFPEQPQQ-NH2; SMILES NC(=O)CC[C@H](NC(=O)[C@H](CCC(N)=O)NC(=O)[C@@H]1CCCN1C(=O)[C@H](CCC(N)=O)NC(=O)[C@H](CCC(=O)O)NC(=O)[C@@H]1CCCN1C(=O)[C@H](Cc1ccccc1)NC(=O)[C@@H]1CCCN1C(=O)[C@H](CCC(N)=O)NC(=O)[C@H](CCC(=O)O)NC(=O)[C@@H]1CCCN1C(=O)[C@H](CCC(N)=O)NC(=O)[C@H](CCC(=O)O)NC(=O)[C@@H]1CCCN1C(=O)[C@@H]1CCC(=O)N1)C(N)=O) [Peptide 11] | 0 % of max | 0 % of max | 6 % of max | 2 % of max | 0 % of max | 0 % of max | 0 % of max | 0 % of max | 0 % of max | 0 % of max | 1 % max
(pE)QPFPQPEQPFPLQPEQP-amide ([pGlu]QPFPQPEQPFPLQPEQP-NH2; SMILES CC(C)C[C@H](NC(=O)[C@@H]1CCCN1C(=O)[C@H](Cc1ccccc1)NC(=O)[C@@H]1CCCN1C(=O)[C@H](CCC(N)=O)NC(=O)[C@H](CCC(=O)O)NC(=O)[C@@H]1CCCN1C(=O)[C@H](CCC(N)=O)NC(=O)[C@@H]1CCCN1C(=O)[C@H](Cc1ccccc1)NC(=O)[C@@H]1CCCN1C(=O)[C@H](CCC(N)=O)NC(=O)[C@@H]1CCC(=O)N1)C(=O)N[C@@H](CCC(N)=O)C(=O)N1CCC[C@H]1C(=O)N[C@@H](CCC(=O)O)C(=O)N[C@@H](CCC(N)=O)C(=O)N1CCC[C@H]1C(N)=O) [Peptide 6] | 34 % of max | 21 % of max | ≥ 100 % of max | ≥ 100 % of max | 8 % of max | 0 % of max | 1 % of max | 8 % of max | ≥ 100 % of max | 56 % of max | 43 % max
(pE)SGEGSFQPSQENPQ-amide ([pGlu]SGEGSFQPSQENPQ-NH2; SMILES NC(=O)CC[C@H](NC(=O)[C@@H]1CCCN1C(=O)[C@H](CC(N)=O)NC(=O)[C@H](CCC(=O)O)NC(=O)[C@H](CCC(N)=O)NC(=O)[C@H](CO)NC(=O)[C@@H]1CCCN1C(=O)[C@H](CCC(N)=O)NC(=O)[C@H](Cc1ccccc1)NC(=O)[C@H](CO)NC(=O)CNC(=O)[C@H](CCC(=O)O)NC(=O)CNC(=O)[C@H](CO)NC(=O)[C@@H]1CCC(=O)N1)C(N)=O) [Peptide 9] | 0 % of max | 0 % of max | 0 % of max | 0 % of max | 0 % of max | 0 % of max | 0 % of max | 0 % of max | 0 % of max | 0 % of max | 0 % max
(pE)QPFPQPEQPFSQQ-amide ([pGlu]QPFPQPEQPFSQQ-NH2; SMILES NC(=O)CC[C@H](NC(=O)[C@H](CCC(N)=O)NC(=O)[C@H](CO)NC(=O)[C@H](Cc1ccccc1)NC(=O)[C@@H]1CCCN1C(=O)[C@H](CCC(N)=O)NC(=O)[C@H](CCC(=O)O)NC(=O)[C@@H]1CCCN1C(=O)[C@H](CCC(N)=O)NC(=O)[C@@H]1CCCN1C(=O)[C@H](Cc1ccccc1)NC(=O)[C@@H]1CCCN1C(=O)[C@H](CCC(N)=O)NC(=O)[C@@H]1CCC(=O)N1)C(N)=O) [Peptide 7] | 0 % of max | 7 % of max | 60 % of max | 20 % of max | 12 % of max | 0 % of max | 0 % of max | 3 % of max | 17 % of max | 3 % of max | 12 (12) % max
(pE)QPFPQPEQPIPVQPEQS-amide ([pGlu]QPFPQPEQPIPVQPEQS-NH2; SMILES CC[C@H](C)[C@H](NC(=O)[C@@H]1CCCN1C(=O)[C@H](CCC(N)=O)NC(=O)[C@H](CCC(=O)O)NC(=O)[C@@H]1CCCN1C(=O)[C@H](CCC(N)=O)NC(=O)[C@@H]1CCCN1C(=O)[C@H](Cc1ccccc1)NC(=O)[C@@H]1CCCN1C(=O)[C@H](CCC(N)=O)NC(=O)[C@@H]1CCC(=O)N1)C(=O)N1CCC[C@H]1C(=O)N[C@H](C(=O)N[C@@H](CCC(N)=O)C(=O)N1CCC[C@H]1C(=O)N[C@@H](CCC(=O)O)C(=O)N[C@@H](CCC(N)=O)C(=O)N[C@@H](CO)C(N)=O)C(C)C) [Peptide 4] | 18 % of max | 19 % of max | ≥ 100 % of max | ≥ 100 % of max | 51 % of max | 2 % of max | 3 % of max | 7 % of max | 48 % of max | 30 % of max | 38 % max
(pE)PEQPFPEQPIPEQPQPYP-amide ([pGlu]PEQPFPEQPIPEQPQPYP-NH2; SMILES CC[C@H](C)[C@H](NC(=O)[C@@H]1CCCN1C(=O)[C@H](CCC(N)=O)NC(=O)[C@H](CCC(=O)O)NC(=O)[C@@H]1CCCN1C(=O)[C@H](Cc1ccccc1)NC(=O)[C@@H]1CCCN1C(=O)[C@H](CCC(N)=O)NC(=O)[C@H](CCC(=O)O)NC(=O)[C@@H]1CCCN1C(=O)[C@@H]1CCC(=O)N1)C(=O)N1CCC[C@H]1C(=O)N[C@@H](CCC(=O)O)C(=O)N[C@@H](CCC(N)=O)C(=O)N1CCC[C@H]1C(=O)N[C@@H](CCC(N)=O)C(=O)N1CCC[C@H]1C(=O)N[C@@H](Cc1ccc(O)cc1)C(=O)N1CCC[C@H]1C(N)=O) [Peptide 14] | 2 % of max | 31 % of max | ≥ 100 % of max | ≥ 100 % of max | 100 % of max | 100 % of max | 100 % of max | 91 % of max | ≥ 100 % of max | ≥ 100 % of max | 82 % max
(pE)LQPFPQPELPYPQPQ-amide ([pGlu]LQPFPQPELPYPQPQ-NH2; SMILES CC(C)C[C@H](NC(=O)[C@@H]1CCC(=O)N1)C(=O)N[C@@H](CCC(N)=O)C(=O)N1CCC[C@H]1C(=O)N[C@@H](Cc1ccccc1)C(=O)N1CCC[C@H]1C(=O)N[C@@H](CCC(N)=O)C(=O)N1CCC[C@H]1C(=O)N[C@@H](CCC(=O)O)C(=O)N[C@@H](CC(C)C)C(=O)N1CCC[C@H]1C(=O)N[C@@H](Cc1ccc(O)cc1)C(=O)N1CCC[C@H]1C(=O)N[C@@H](CCC(N)=O)C(=O)N1CCC[C@H]1C(=O)N[C@@H](CCC(N)=O)C(N)=O) [Peptide 1] | 100 % of max | 100 % of max | ≥ 100 % of max | 96 % of max | 14 % of max | 23 % of max | 39 % of max | 3 % of max | 75 % of max | 34 % of max | 58 % max
(pE)QPPFSEQEQPVLPQ-amide (N-terminal pyroglutamate; C-terminal amide) [Peptide 13] | 0 % of max | 16 % of max | 70 % of max | 0 % of max | 6 % of max | 5 % of max | 0 % of max | 0 % of max | 0 % of max | 0 % of max | 10 % max
